For assay [1], the species on record is Oryctolagus cuniculus. The experiment in a line: Antihypercholesterolemic value for the compound was determined. Format: functional.
Assay [2] relates to Oryctolagus cuniculus. Description: Percent reduction in serum cholesterol was determined by the oral administration in methylcellulose vehicle at a dose of 5 mg/kg/day for 4 day. Format: functional.
The nature of assay [3]: Compound was evaluated for the inhibition of J774 macrophage cell culture Acyl coenzyme A:cholesterol acyltransferase. Format: cell-based.
The species entered for assay [4] is Oryctolagus cuniculus. Description: Antihypercholesterolemic value for the compound was determined in rabbits. Format: functional.
The subject of assay [5] is Oryctolagus cuniculus. Description: Percent reduction in serum cholesterol was determined by the oral administration in methylcellulose vehicle at a dose of 2.5 mg/kg/day for 7 days. In kind it is functional.

In general, IC50 refers to the concentration at which inhibition is half-maximal. Low readings indicate inhibition by little substance, high ones a need for much substance. In turn, `CN(C(=O)c1ccc(C#N)cc1)[C@@H]1N(C)C(c2ccc(C#N)cc2)=NC1(C(F)(F)F)C(F)(F)F` yielded an AHV in the assay listed under Oryctolagus cuniculus [1] of 15%. The Reduction in the assay on Oryctolagus cuniculus [2] stood at 12%. In assay [3], this compound returned an IC50 of 54 µM.
`CN(C(=O)c1ccc(C#N)cc1)C1N(C)C(c2ccc(C#N)cc2)=NC1(C(F)(F)F)C(F)(F)F` (centres undefined) registered an AHV in the assay filed under Oryctolagus cuniculus [4] of more than 90%. The Reduction in the assay on Oryctolagus cuniculus [5] was determined as 79%. The compound also had a half-maximal inhibitory concentration (IC50) in assay [3] of 16 µM.
In the assay listed under Oryctolagus cuniculus [1], `CN(C(=O)c1ccc(C#N)cc1)[C@H]1N(C)C(c2ccc(C#N)cc2)=NC1(C(F)(F)F)C(F)(F)F` came in with an AHV of 90%. The compound also displayed a Reduction in the assay on Oryctolagus cuniculus [2] of 75%. For the same compound, in assay [3], inhibition was half-maximal at 11 µM (IC50).
